{
  "source": "patent US9593145B2",
  "about": "“Secondary structure stabilized NMDA receptor modulators and uses thereof” (Northwestern University, priority 2010, dated 2017)",
  "key": {"NMDA receptor [1]": {"target": "T1, NMDA receptor (Rattus norvegicus, UniProt P35439)", "T1 construct": "in hippocampal CAI pyramidal neurons; from tissue; host or cells: in vitro hippocampal slices, CA1 pyramidal neurons", "settings": "cited from earlier work"}, "[2]": {"test_system": "Schaffer collateral CA1 synapses", "settings": "cited from earlier work"}, "[3]": {"test_system": "Schaffer collateral CA1 synapses", "settings": "cited from earlier work", "remark": "listed apart in the source"}, "Glutamate, AMPA": {"test_system": "Glutamate, AMPA", "assay": "binding assay, Glutamate, AMPA", "design": "species or system rat", "settings": "10 μM", "text": "(§1) Table B depicts the results of binding assays against various targets with AK51: […]"}, "Glutamate, Kainate": {"test_system": "Glutamate, Kainate", "assay": "binding assay, Glutamate, Kainate", "design": "species or system rat", "settings": "10 μM", "text": "as §1"}, "Glutamate, NMDA, Agonism": {"test_system": "Glutamate, NMDA, Agonism", "assay": "binding assay, Glutamate, NMDA, Agonism", "design": "species or system rat", "settings": "10 μM", "text": "as §1"}, "[4]": {"test_system": "Glutamate, NMDA, Phencyclidine", "assay": "binding assay, Glutamate, NMDA, Phencyclidine", "design": "species or system rat", "settings": "10 μM", "text": "as §1"}, "[5]": {"test_system": "Glutamate, NMDA, Polyamine", "assay": "binding assay, Glutamate, NMDA, Polyamine", "design": "species or system rat", "settings": "10 μM", "text": "as §1"}, "Glutamate, Non-Selective": {"test_system": "Glutamate, Non-Selective", "assay": "binding assay, Glutamate, Non-Selective", "design": "species or system rat", "settings": "10 μM", "text": "as §1"}, "[6]": {"test_system": "Glycine, Strychnine-Sensitive", "assay": "binding assay, Glycine, Strychnine-Sensitive", "design": "species or system rat", "settings": "10 μM", "text": "as §1"}, "Potassium Channel hERG": {"target": "Potassium Channel hERG (Homo sapiens, UniProt Q12809)", "sequence (Q12809 whole entry)": "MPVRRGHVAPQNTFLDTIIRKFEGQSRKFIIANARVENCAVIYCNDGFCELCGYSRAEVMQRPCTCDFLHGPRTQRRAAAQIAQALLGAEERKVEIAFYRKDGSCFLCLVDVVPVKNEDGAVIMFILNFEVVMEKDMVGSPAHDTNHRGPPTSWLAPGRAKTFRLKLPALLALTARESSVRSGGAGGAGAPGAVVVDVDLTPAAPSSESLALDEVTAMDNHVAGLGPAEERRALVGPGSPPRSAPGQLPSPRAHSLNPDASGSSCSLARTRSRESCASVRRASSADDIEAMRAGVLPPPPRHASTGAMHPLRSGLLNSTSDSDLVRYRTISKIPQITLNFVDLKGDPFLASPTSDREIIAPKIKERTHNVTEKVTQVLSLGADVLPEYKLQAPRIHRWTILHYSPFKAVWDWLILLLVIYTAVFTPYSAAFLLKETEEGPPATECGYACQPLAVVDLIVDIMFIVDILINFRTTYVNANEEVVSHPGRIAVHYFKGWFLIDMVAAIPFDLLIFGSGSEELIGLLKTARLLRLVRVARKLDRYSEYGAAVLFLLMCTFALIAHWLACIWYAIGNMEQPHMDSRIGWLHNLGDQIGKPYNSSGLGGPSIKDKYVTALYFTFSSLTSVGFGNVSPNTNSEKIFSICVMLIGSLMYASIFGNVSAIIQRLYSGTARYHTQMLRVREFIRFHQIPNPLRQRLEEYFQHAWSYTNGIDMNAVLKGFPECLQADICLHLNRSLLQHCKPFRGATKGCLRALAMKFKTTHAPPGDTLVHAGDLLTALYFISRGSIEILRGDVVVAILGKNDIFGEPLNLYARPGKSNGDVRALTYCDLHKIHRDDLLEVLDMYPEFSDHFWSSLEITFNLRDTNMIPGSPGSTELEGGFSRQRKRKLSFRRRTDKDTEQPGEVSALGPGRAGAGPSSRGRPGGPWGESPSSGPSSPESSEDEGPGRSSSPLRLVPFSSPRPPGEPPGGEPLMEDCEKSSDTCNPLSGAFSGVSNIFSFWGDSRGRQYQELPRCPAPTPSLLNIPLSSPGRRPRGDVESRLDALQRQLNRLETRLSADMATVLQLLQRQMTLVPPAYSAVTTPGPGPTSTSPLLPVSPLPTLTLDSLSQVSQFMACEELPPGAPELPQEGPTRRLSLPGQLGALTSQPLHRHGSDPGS", "assay": "binding assay, Potassium Channel hERG", "text": "as §1"}, "NMDA receptor [7]": {"target": "T1, NMDA receptor", "assay": "NMDA receptor gated single neuron conductance (INMDA) in hippocampal CA1 pyramidal neurons", "assay_type": "cell-based", "settings": "for relative potency / magnitude as enhancer of INMDA among the tested compounds: low concentrations (50-100 nM)", "text": "(§2) The effects of the three compounds were examined on 1) NMDA receptor gated single neuron conductance (INMDA) in hippocampal CAI pyramidal neurons and 2) the magnitude of long term potentiation (LTP) and long term depression (LTD) at Schaffer collateral CA1 synapses, in in vitro hippocampal slices."}, "[8]": {"test_system": "Schaffer collateral CA1 synapses", "assay": "long term potentiation (LTP) at Schaffer collateral CA1 synapses, in vitro hippocampal slices", "assay_type": "cell-based", "settings": "for effect on magnitude of LTP: high frequency stimulus", "text": "as §2"}, "[9]": {"test_system": "Schaffer collateral CA1 synapses", "assay": "long term depression (LTD) at Schaffer collateral CA1 synapses, in vitro hippocampal slices", "assay_type": "cell-based", "settings": "1 μM; low frequency stimulus", "text": "as §2"}, "[10]": {"assay": "alternating T-maze learning task", "assay_type": "in vivo, rat", "settings": "60 min before testing", "experimental": "Male 3 month old Fisher 344 X Brown Norway F1 cross rats (FBNF1) were used for this study. The t-maze was constructed with arms (45 cm long×10 cm wide×10 cm high) made of black Plexiglas enclosing the maze. Two plastic bottle caps, lined with wire mesh, were secured to the end of each goal arm in which the food reward (Cheerios, 100 mg/piece) was placed. Before the start of training, animals were gradually deprived of food to approximately 85% of their free feeding weight. On three successive days before the start of training, animals were habituated to the t-maze with food located throughout the maze. […] On the subsequent testing day, animals were given injections of AK51(0.3, 1, 3, 10, 30 mg/kg p.o.), or DMSO vehicle (1 mg/ml; Sigma, Saint Louis Mo.) in a blind manner via gastric gavage (4″, 16-ga; Braintree Scientific, Braintree Mass.) 60 min prior to the start of testing (n=8-9 per group. On the first trial of testing, both arms were baited with food and for the subsequent 20 trials only alternating choices (opposite of the animal's previous choice) were rewarded (˜30 sec inter-trial interval). The number of trials to criterion (5 consecutive correct choices) was calculated for each animal. Data was analyzed by ANOVA followed by Fisher PLSD post hoc tests comparing individual drug doses to vehicle (α=0.05). […]"}},
  "note": "Entries after “also recorded” stand apart in the source; their conditions may differ. Read-outs that look alike come from different tables or passages of the source. Residues, ends and D or L forms follow the SMILES beside them.",
  "data": [
    {"smiles": "C[C@@H](O)[C@H](N)C(=O)N1CCC[C@H]1C(=O)N1CCC[C@H]1C(=O)N[C@H](C(N)=O)[C@@H](C)O", "note": "[GLYX-13] (H-TPPT-NH2)", "values": [
      {"measurement": "effect on burst INMDA", "setting": "NMDA receptor [1]; 100 μM", "result": "reducing"},
      {"measurement": "effect on burst-activated INMDA", "setting": "NMDA receptor [1]; low concentration 1-10 μM", "result": "enhancement"},
      {"measurement": "effect on single pulse evoked INMDA", "setting": "NMDA receptor [1]; low concentration 1-10 μM", "result": "reducing"},
      {"measurement": "effect on LTP", "setting": "[2]; 100 μM", "result": "reducing"},
      {"measurement": "effect on LTP", "setting": "[2]; low concentration 1-10 μM", "result": "enhancement"},
      {"measurement": "effect on LTD", "setting": "[3]; 100 μM", "result": "no longer affected"},
      {"measurement": "effect on LTD", "setting": "[3]; low concentration 1-10 μM", "result": "reducing"}
    ]},
    {"smiles": "O=C1NCC12CCCN2", "note": "(stereo not drawn) [AK51]", "values": [
      {"measurement": "% Inhibition", "setting": "Glutamate, AMPA", "result": "−8", "unit": "%"},
      {"measurement": "% Inhibition", "setting": "Glutamate, Kainate", "result": "−13", "unit": "%"},
      {"measurement": "% Inhibition", "setting": "Glutamate, NMDA, Agonism", "result": 27, "unit": "%"},
      {"measurement": "% Inhibition", "setting": "[4]", "result": "−5", "unit": "%"},
      {"measurement": "% Inhibition", "setting": "[5]", "result": "−14", "unit": "%"},
      {"measurement": "% Inhibition", "setting": "Glutamate, Non-Selective", "result": "−10", "unit": "%"},
      {"measurement": "% Inhibition", "setting": "[6]", "result": 4, "unit": "%"},
      {"measurement": "inhibition at 10 µM", "setting": "Potassium Channel hERG", "result": 3, "unit": "%"},
      {"measurement": "effect on single shock evoked INMDA (NMDA e.p.s.c.s)", "setting": "NMDA receptor [7]; 100 nM, listed as NRX-10,051", "result": "enhanced; also recorded: marked enhancement"},
      {"measurement": "effect on single shock evoked INMDA (NMDA e.p.s.c.s)", "setting": "NMDA receptor [7]; 1 μM", "result": "enhancement"},
      {"measurement": "effect on single shock evoked INMDA (NMDA e.p.s.c.s)", "setting": "NMDA receptor [7]; 1 μM, listed as NRX-10,051", "result": "enhanced"},
      {"measurement": "effect on NMDA current (NMDA receptor-gated current, whole-cell recording)", "setting": "NMDA receptor [7]; FIG. 4, 100 nM and 1 μM, 20 min bath application", "result": "enhances"},
      {"measurement": "relative potency / magnitude as enhancer of INMDA among the tested compounds", "setting": "NMDA receptor [7]", "result": "less potency than compound B; also recorded: smaller in magnitude"},
      {"measurement": "effect on magnitude of LTP", "setting": "[8]; 100 nM", "result": "potentiate"},
      {"measurement": "effect on magnitude of LTP", "setting": "[8]; 1 μM", "result": "potentiate"},
      {"measurement": "effect on magnitude of LTP", "setting": "[8]; 1 μM, listed as NRX-10,051", "result": "doubled"},
      {"measurement": "effect on LTP", "setting": "[8]; FIG. 4, 100 nM and 1 μM bath application", "result": "enhances"},
      {"measurement": "effect on LTD", "setting": "[9]", "result": "not altering"},
      {"measurement": "learning behavior in the T-maze test", "setting": "[10]; 1.0 mg/kg by mouth, P<0.001", "result": "statistically significant enhancement"},
      {"measurement": "learning behavior in the T-maze test", "setting": "[10]; 3.0 mg/kg by mouth, P<0.01", "result": "statistically significant enhancement"}
    ]},
    {"smiles": "CC(O)C(NC(=O)OCc1ccccc1)C(=O)N1CC2(CCCN2C(=O)OCc2ccccc2)C1=O", "note": "(stereo not drawn) [AK-52]", "values": [
      {"measurement": "effect on single shock evoked INMDA (NMDA e.p.s.c.s)", "setting": "NMDA receptor [7]; 100 nM", "result": "only a mild enhancement"},
      {"measurement": "effect on single shock evoked INMDA (NMDA e.p.s.c.s)", "setting": "NMDA receptor [7]; 100 nM, listed as AK52", "result": "enhancement"},
      {"measurement": "effect on single shock evoked INMDA (NMDA e.p.s.c.s)", "setting": "NMDA receptor [7]; 1 μM", "result": "significant reduction"},
      {"measurement": "effect on single shock evoked INMDA (NMDA e.p.s.c.s)", "setting": "NMDA receptor [7]; 1 μM, listed as AK52", "result": "marked reduction"},
      {"measurement": "relative potency / magnitude as enhancer of INMDA among the tested compounds", "setting": "NMDA receptor [7]", "result": "weakest enhancer"},
      {"measurement": "effect on magnitude of LTP", "setting": "[8]; 100 nM", "result": "enhancement of LTP similar in magnitude to compound B and AK-51"},
      {"measurement": "effect on magnitude of LTP", "setting": "[8]; 1 μM", "result": "slight, but significant, reduction"},
      {"measurement": "effect on induction / magnitude of LTP", "setting": "[8]; concentration not given", "result": "selectively enhances"},
      {"measurement": "effect on LTD", "setting": "[9]", "result": "without altering; also recorded: did not affect"}
    ]}
  ]
}
